For one experiment, the system named is Erk 1 and 2. The experiment is described as follows: Western blotting analysis of Erk 1 and 2 phosphorylation in UMR-106 cells. It is filed as cell-based, rat. The protocol:
Western blotting analysis. […] After 48 h cells were treated with 10 nM 1,25(OH)2D3 for the indicated time. […] Cell debris were removed by centrifugation and equal amount of protein was run on SDS-PAGE. Separated proteins were transferred to nitrocellulose membrane and levels of MNAR, ERK, and p-ERK were determined by western blotting analysis.
On the technique in general: Immunoblotting shows a protein as a band on a membrane.

Another experiment has as its system osteocalcin. The experiment is described as follows: Quantitative PCR (TaqMan) analysis of osteocalcin in UMR-106 cells. As to conditions: 100 nM, 24 h. The format is cell-based, rat. The procedure: (§1) Quantitative PCR (TaqMan) analysis. […] Following transfection cells were cultured in media supplemented with 2% charcoal stripped FBS. 16 hours after the transfection cells were treated with 100 nM 1,25(OH)2 Vit.D3 for 24 or 48 hours. Cells were lysed and total RNA was isolated using RNeasy Kit (Quiagen). Quantitative PCR (TaqMan) was performed to determine osteocalcin levels in UMR-106 cells and alkaline phosphatase levels in ROS 17/2.8 cells.

The next experiment relates to alkaline phosphatase. As to the kind of experiment: Quantitative PCR (TaqMan) analysis of alkaline phosphatase in ROS 17/2.8 cells. It is filed as cell-based, rat. As to conditions: overexpression of MNAR, 100 nM, 48 h. The procedure:
as §1

The target of another experiment is T1, GST-VDR-LBD (Homo sapiens, UniProt P11473).
T1 construct: made in house; host or cells: E. coli BL-21
T1 sequence (P11473 110-427): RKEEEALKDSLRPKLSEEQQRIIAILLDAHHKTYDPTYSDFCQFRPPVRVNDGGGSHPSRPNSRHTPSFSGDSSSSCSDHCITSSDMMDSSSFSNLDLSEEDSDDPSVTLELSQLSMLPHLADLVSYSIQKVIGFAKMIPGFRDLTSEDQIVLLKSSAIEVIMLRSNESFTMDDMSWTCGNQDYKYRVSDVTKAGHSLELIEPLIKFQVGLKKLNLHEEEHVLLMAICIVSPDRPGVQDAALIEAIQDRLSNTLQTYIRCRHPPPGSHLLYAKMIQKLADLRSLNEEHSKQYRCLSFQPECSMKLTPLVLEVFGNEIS
The experiment is described as follows: ELISA-based VDR-MNAR interaction analysis. To be noted: GST-VDR-LBD preincubated with vehicle or 1 μM 1,25(OH)2D3; peptide 50 μM. The format is binding. The protocol:
ELISA-based VDR-MNAR interaction analysis. A rapid, nonisotopic ELISA-type method was used for characterization of VDR-MNAR interactions. Biotinylated peptides corresponding to different MNAR's LXXLL motifs (designated 1-9, sequentially from the most N-terminal motif) were synthesized and immobilized on a Reacti-Bind™ NeutrAvidin™-coated microplate (Pierce Biotechnology, Rockford, Ill.). The microplate was washed twice with binding buffer (50 mM Tris-HCL, pH 8.0, 150 mM NaCl, 1 mM DTT, 1 mM EDTA, 0.01% NP-40, and 0.01% BSA). Peptides were diluted in 100 μl binding buffer to a final concentration of 50 μM and incubated with the Reacti-Bind™ NeutrAvidin™ coated microplate for 1 hour at room temperature, washed 4 times with the binding buffer. GST-VDR-LBD, preincubated with vehicle or 1 μM 1,25(OH)2D3, was allowed to interact with the immobilized peptide corresponding to one of each of the MNAR LXXLL motifs for 2 hours at room temperature. The plate was washed 4 times with binding buffer and incubated with anti-GST antibodies fused to HRP (Sigma, St. Louis, Mo.) for 1 h in binding buffer and washed 4 more times. SuperSignal® ELISA Pico Chemiluminescent Substrate (Pierce Biotechnology, Rockford, Ill.) was used to detect antigen/antibody complex, signal was read using a Wallac Victor2 1420 Multilabel Counter (PerkinElmer Lifesciences, Boston, Mass.).

A further experiment relates to PI3-K. As to the kind of experiment: PI3-K activity in p85 immunoprecipitates from MCF-7 cells. The format is cell-based. The procedure: Transfections and cell lysates preparation. […] Cell debris was removed by centrifugation.
Immunoprecipitation and kinase assays.
For PI3-K reaction, p85 was immunoprecipitated from cell lysates as described above. Kinase activity in the immunoprecipitate was detected using PI3-Kinase ELISA kit from Echelon Biosciences according to the manufacture's instructions. Briefly, reaction was run in 50 μl volume by adding 5 μl of 10× reaction buffer and 10 μl of PI(4,5)P2 substrate solution (10 μM) to the p85 immunoprecipitate. After the PI3-K reactions was complete, reaction products are first mixed and incubated with a PI(3,4,5)P3 detecting antibody, then added to the PI(3,4,5)P3-coated microplate for competitive binding. A peroxidase-linked secondary detection reagent and colorirnetric detection was used to detect PI(3,4,5)P3 detecting antibody binding to the plate. The colorimetric signal was inversely proportional to the amount of PI(3,4,5)P3 produced by PI 3-K activity.

Experiment [1] has as its target T2, GST-VDR ligand binding domain fusion protein (Homo sapiens, UniProt P11473).
T2 construct: made in house; host or cells: E. coli BL-21 (GST-VDR-LBD); Promega TNT Quick Coupled Transcription/Translation System (MNAR)
The experiment is described as follows: GST pull-down interaction analysis. To be noted: 35S-radiolabeled full length MNAR; absence or presence of 100 nM 1,25(OH)2 Vit. D3. The procedure: GST pull-down interaction analysis. A GST fusion to the ligand binding domain of VDR, amino acids 110-427, termed GST-VDR-LBD, was expressed in BL-21 cells and bound to glutathione-Sepharose 4B (Amersham Biosciences, Piscataway, NJ). Wild type MNAR was transcribed/translated and ^35S radiolabeled using Promega TNT Quick Coupled Transcription/Translation System (Madison, Wis.) and incubated for 1 hour at room temperature with GST-VDR-LBD fusion protein bound to glutathione-Sepharose 4B in the absence or presence of 100 nM 1,25(OH)2 Vit. D3 in binding buffer (50 mM Tris pH 8.0, 150 mM NaCl, 1 mM DTT, 1 mM PMSF, 1 mM EDTA, 0.05% NP-40, 1× Protease cocktail). Beads were then washed 4 times with the binding buffer and bound proteins were eluted by addition of SDS buffer and analyzed by SDS-PAGE and autoradiography.

The subject of experiment [2] is Akt. The experiment is described as follows: Western blotting analysis of phosphorylated Akt in MCF-7 cells. It is filed as cell-based. The protocol:
Transfections and cell lysates preparation. […] Cell debris was removed by centrifugation. […] Equal amount of protein from cell lysates was run on SDS-PAGE. Separated proteins were transferred to nitrocellulose membrane and levels of Akt and p-Akt were determined by western blotting analysis. Akt antibody was from Cell Signaling (anti-Akt cat#9272, anti-p-Akt cat# 9271).

Experiment [3] relates to Akt. The experiment is described as follows: Akt kinase activity in immunoprecipitate (GSK-3 substrate) from MCF-7 cells. The format is cell-based. To be noted: MNAR overexpression, estradiol for 20 min. The protocol:
Transfections and cell lysates preparation. […] Cell debris was removed by centrifugation. […] Briefly, […] of GSK-3 fusion protein was added to the Akt-immunoprecipitate as a substrate. Kinase reaction was run in a reaction buffer supplied by the manufacturer. The level of p-GSK-3 produced in the kinase reaction was analyzed by western blotting analysis.

Ends that are not written are not given here.

T2 sequence (Q8IZL8 whole entry E896G/T1069P partner, one chain of several, the tested form may be a part): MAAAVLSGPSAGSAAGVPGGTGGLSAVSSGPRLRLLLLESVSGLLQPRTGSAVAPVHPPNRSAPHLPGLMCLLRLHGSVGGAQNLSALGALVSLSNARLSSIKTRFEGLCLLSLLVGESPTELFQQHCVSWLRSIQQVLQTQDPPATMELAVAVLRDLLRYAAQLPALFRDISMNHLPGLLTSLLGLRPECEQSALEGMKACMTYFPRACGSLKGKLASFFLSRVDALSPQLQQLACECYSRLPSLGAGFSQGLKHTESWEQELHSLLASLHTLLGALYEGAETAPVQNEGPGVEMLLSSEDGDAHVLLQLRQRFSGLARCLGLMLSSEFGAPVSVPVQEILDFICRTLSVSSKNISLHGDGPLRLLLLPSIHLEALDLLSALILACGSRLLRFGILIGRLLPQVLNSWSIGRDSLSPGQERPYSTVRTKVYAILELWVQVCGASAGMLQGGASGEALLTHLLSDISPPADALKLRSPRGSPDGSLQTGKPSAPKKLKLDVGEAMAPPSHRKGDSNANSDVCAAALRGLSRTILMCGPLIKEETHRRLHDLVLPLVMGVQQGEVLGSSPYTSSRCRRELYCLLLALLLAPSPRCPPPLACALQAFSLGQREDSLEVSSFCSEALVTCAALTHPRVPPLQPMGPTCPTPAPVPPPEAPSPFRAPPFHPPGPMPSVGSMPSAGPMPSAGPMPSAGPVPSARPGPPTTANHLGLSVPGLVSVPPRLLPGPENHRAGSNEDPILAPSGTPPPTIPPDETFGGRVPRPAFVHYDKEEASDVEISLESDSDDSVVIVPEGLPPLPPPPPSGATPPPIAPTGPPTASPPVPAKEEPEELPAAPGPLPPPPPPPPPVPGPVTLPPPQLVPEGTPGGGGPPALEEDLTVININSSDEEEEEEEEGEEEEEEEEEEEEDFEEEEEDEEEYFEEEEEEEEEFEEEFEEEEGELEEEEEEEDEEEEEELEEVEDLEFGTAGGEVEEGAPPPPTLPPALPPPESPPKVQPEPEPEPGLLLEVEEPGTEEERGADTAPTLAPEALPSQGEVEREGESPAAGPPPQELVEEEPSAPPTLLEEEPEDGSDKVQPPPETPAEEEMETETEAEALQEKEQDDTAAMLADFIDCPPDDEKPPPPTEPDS

As for `C=C1/C(=C\C=C2/CCC[C@]3(C)[C@@H]([C@H](C)CCCC(C)(C)O)CC[C@@H]23)C[C@@H](O)C[C@@H]1O` [1,25(OH)2 Vit D3, 1,25 dihydroxy vitamin D3], the Erk phosphorylation result in the experiment with Erk 1 and 2 (MNAR overexpression, 10 nM) is “dramatic increase in Erk phosphorylation”. Moreover, the “levels of phosphorylated Erk 1 and 2” value with Erk 1 and 2 (absence of MNAR (control vector), 10 nM for 10 or 20 min) was “augmentation of the levels of phosphorylated Erk 1 and 2”. The “1,25(OH)2 Vit D3-stimulated levels of osteocalcin” value with osteocalcin (MNAR overexpression) was “strong potentiation”. Further, the “level of osteocalcin expression” value in the experiment on osteocalcin (control plasmid) is “did not affect”. Moreover, the “induction of AP expression level” value with alkaline phosphatase is “strongly enhanced”.

On to “MNAR LXXLL motif #5: biotinylated peptide corresponding to the fifth LXXLL motif of MNAR, counted from the most N-terminal motif (LPGLLTSLL; also: biotinylated, site not given here)”, for which the “VDR ligand binding domain interaction with immobilized MNAR LXXLL peptide” value with GST-VDR-LBD is listed as “ligand-dependently interacted”.

For the molecule `C[C@]12CC[C@@H]3c4ccc(O)cc4C[C@@H](CCCCCCCCC[S+]([O-])CCCC(F)(F)C(F)(F)F)[C@H]3[C@@H]1CC[C@@H]2O` (stereo partly shown) [ICI 182 780], in the experiment on PI3-K (MCF-7 cells treated with 10 nM estradiol for 20 min), the “effect on estradiol activation of PI3-K activity” value is recorded as “blocked”.

Take “MNAR: modulator of nongenomic activity of estrogen receptor, scaffold protein, GenBank AF547989”: the “MNAR interaction with VDR-LBD” value in experiment [1] was “directly interacts with VDR-LBD in a ligand-dependent manner”.

Turning to `C[C@]12CC[C@@H]3c4ccc(O)cc4CC[C@H]3[C@@H]1CC[C@@H]2O` [estradiol, 17β-estradiol], in the experiment with PI3-K (MCF-7 cells, MNAR overexpression, 10 nM estradiol for 20 min), the “estrogen-dependant activation of PI3-K” value is given as “increased”. Besides, the PI3-kinase activity result with PI3-K (MCF-7 cells, 10 nM for 20 min) is “stimulation of the PI3-kinase activity”. Besides, in the experiment on Akt [2] (MCF-7 cells transfected with MNAR-expressing plasmid vs empty vector, 10 nM estradiol for 20 min), the phospho-Akt level result is on record as “strong increase in phospho-Akt level”. The “level of phospho-Akt” value with Akt [2] (MCF-7 cells, 10 nM for 20 min) is “increased the level of phospho-Akt”. The “estradiol induced Akt activation (GSK-3 phosphorylation)” value with Akt [3] is reported as “stimulates”.

For the origin of these results see patent US20050202515A1, “Functional method for generating or screening for ligands which modulate steroid hormone receptors” (Wyeth, priority 2004, published 2005).
